The source of these data is patent US20090209474A1, “NOVEL USES FOR DRUGS TARGETING GLUTAMINE SYNTHETASE” (NEWTHERA, priority 2005, published 2009).

The term Ki denotes the equilibrium dissociation constant of an inhibitor or competing ligand from its target.

The target of one assay is GS (mung bean). The note with it: cited from earlier work.
Assay [1] deals with GS (Rattus norvegicus, UniProt P09606). It is filed as in vivo, Wistar rats. More on the design: from tissue; host or cells: Wistar rat brain homogenate or membranes; in A19 also liver and lungs. How it is done: (§1) Cortex, hippocampi and thalamus/hypothalamus were carefully isolated immediately after euthanasia. Membranes were prepared and the activity of GS determined in these different structures (as mentioned above for the whole brain).

Assay [2] addresses GS (Mus musculus, UniProt P15105). The assay is classed as in vivo, BALB/c mice. Conditions: 24 h after single i.p., NF 10 and 100 mg/kg. More on the design: from tissue; host or cells: mouse brain (whole brain, cortex, hippocampus, thalamus/hypothalamus). How it is done:
as §1

A further assay concerns the target T1, purified pig brain GS (Sus scrofa, UniProt P46410).
T1 construct: Fifty microlitre of purified pig brain GS (3 mg/ml) was added to one peripheral well; from tissue; host or cells: pig brain (purified enzyme)
The assay can be described thus: Interaction of NF and purified pig GS (agarose diffusion, precipitation, spot blot, western blot). It is filed as binding. How it is done: Five ml of agarose 0.1% were let to polymerise in a Petri dish. Five wells with equal volume and distance from each other, 1 central and 4 peripherals, were made on it using a 300 μl tip. The central well was filed with 50 μl of NF solution ([…]). Fifty microlitre of purified pig brain GS (3 mg/ml) was added to one peripheral well. In two other wells either 50 μl of TBS or FCS was added. The gel was humidified and left at 37° C. for 48 h.
The final concentration of methanol per assay tube was 10% V/V. Fixed (3 mg/ml) or variable (0.023 to 3 mg/ml) concentrations of either purified brain pig GS or rat brain homogenates were added to each assay tube. The tubes were incubated a room temperature for 5 min. Methanol (10%) and FCS were used as negative controls. The tubes were thereafter centrifuged at 700 g. Supernatant was discarded and the pellets were suspended in 100 μl working buffer and incubated for 15 min at 37° C. The reaction was finally stopped and absorbance was measured as described above.
Twenty μl of agarose gel with precipitated NF/protein complexes issued from diffusion study was applied to methanol activated PVDF membrane. Non-specific binding sites were blocked by 5% low fat skimmed milk in TBS buffer, supplemented with 0.1% tween 20. Transferred proteins were allowed to react with either polyclonal rabbit anti-GS (1/3000) or anti-GR (1/3000) antibodies for 30 min at room temperature. After one quick wash with TBS, 0.1% tween 20, horseradish peroxidase conjugated goat anti-rabbit antibody was subjected (1/5000) to the transferred proteins for 30 min at room temperature.
Twenty μl per well of precipitated NF/protein complex were separated on 8% SDS-PAGE gel in absence or presence of 2β-mercaptoethanol. The proteins separated in presence or the absence of SDS were thereafter transferred to a nitrocellulose membrane ([…]). Non-specific binding sites were blocked by 5% low fat skimmed milk in TBS buffer, supplemented with 0.1% tween 20. Transferred proteins were thereafter allowed to react with either polyclonal rabbit anti-GS (1/3000) or anti-GR (1/3000) antibodies for 30 min at room temperature. After one quick wash with TBS, 0.1% tween 20, horseradish peroxidase conjugated goat anti-rabbit antibody was subjected (1/5000) to the transferred proteins for 30 min at room temperature.
(Immunoblotting shows a protein as a band on a membrane.)

The nature of assay [3]: Adrenal weight of rats administered methylprednisolone. It is filed as in vivo, Wistar rats. How it is done: Wistar rats were administered during 21 days once a day with methyprednisolone (5 mg/kg i.p.) plus GF (0.001, 0.01, 0.1 mg/kg), NF (1 and 10 mg/kg) or vehicle (PCB; i.p). Twenty-four hours after the last administrations, they were euthanatized. A complete necropsy was performed and main organs weighted.

The target of the next assay is T2, Wistar rat brain GS (Rattus norvegicus, UniProt P09606).
T2 construct: from tissue; host or cells: Wistar rat brain homogenate or membranes; in A19 also liver and lungs
In words: GS activity in Wistar rat brain homogenates. The note with it: in absence of 2β-ME. The assay is classed as biochemical. How it is done: GS activity was assessed as mentioned above for purified sheep brain GS.

The target in the next assay is T3, glutamine synthetase (Rattus norvegicus, UniProt P09606).
T3 construct: Wistar rat brain homogenates were incubated with naftazone; from tissue; host or cells: Wistar rat brain homogenate or membranes; in A19 also liver and lungs
In words: Proteins precipitated by NF from rat brain homogenate (mass spectrometry). The assay is classed as binding. Conditions: 8% gel, native conditions.

Sequence of GS (Rattus norvegicus, UniProt P09606) (P09606 2-373 limits assumed): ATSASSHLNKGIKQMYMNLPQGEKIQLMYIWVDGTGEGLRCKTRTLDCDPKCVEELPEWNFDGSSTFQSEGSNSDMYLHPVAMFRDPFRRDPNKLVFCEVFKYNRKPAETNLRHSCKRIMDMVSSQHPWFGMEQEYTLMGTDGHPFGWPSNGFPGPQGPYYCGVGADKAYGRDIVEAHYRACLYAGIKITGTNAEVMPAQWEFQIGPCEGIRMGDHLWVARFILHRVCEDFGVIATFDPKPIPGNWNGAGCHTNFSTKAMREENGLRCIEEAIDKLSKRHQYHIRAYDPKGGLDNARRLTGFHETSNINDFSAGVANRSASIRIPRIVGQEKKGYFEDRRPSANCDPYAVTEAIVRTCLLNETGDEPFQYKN
T1 sequence (P46410 2-373 limits assumed): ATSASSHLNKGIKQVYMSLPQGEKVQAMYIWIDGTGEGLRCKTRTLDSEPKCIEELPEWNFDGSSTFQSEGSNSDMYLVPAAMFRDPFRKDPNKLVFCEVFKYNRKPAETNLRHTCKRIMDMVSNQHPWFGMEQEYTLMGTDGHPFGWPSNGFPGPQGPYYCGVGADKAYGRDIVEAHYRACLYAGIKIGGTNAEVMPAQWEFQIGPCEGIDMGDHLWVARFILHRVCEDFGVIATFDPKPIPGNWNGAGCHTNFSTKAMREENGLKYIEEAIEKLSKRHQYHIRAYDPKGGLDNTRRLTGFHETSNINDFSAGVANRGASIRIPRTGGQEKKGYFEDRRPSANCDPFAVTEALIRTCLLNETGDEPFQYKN
T3 sequence (P09606 2-373 limits assumed): as the sequence (P09606 2-373 limits assumed) above
Sequence of GS (Mus musculus, UniProt P15105) (P15105 2-373 limits assumed): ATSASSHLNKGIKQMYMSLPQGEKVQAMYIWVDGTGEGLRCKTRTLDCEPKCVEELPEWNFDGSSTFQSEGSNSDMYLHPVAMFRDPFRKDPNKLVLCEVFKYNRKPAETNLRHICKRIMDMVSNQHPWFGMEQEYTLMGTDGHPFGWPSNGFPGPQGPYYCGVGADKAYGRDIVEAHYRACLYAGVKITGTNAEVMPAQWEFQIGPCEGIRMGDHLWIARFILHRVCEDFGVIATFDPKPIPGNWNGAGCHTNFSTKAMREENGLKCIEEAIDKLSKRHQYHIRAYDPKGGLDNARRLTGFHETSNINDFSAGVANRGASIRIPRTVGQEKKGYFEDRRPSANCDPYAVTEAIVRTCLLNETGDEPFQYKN
T2 sequence (P09606 2-373 limits assumed): as the sequence (P09606 2-373 limits assumed) above

Turning to `NC1(C(=O)O)COC(P(=O)(O)O)C1` (centres unmarked) [Tetrahydrofuran phosphinothricin, 3-Amino-5-phosphono-tetrahydro-furan-3-carboxylic acid], the Ki at GS (mung bean) was 5 µM.
Take `NC1(C(=O)O)CCC(P(=O)(O)O)C1` (centres unmarked) [Cyclopentane phosphinothricin, 1-Amino-3-phosphono-cyclopentane-carboxylic acid]: the Ki at GS (mung bean) was 0.47 µM.
With `NC(=O)NN=C1C=Cc2ccccc2C1=O` [NF, 1-oxo, 2 naphtyl semicarbazone], at GS [1] (NF 1 and 10 mg/kg i.p.), the “GS activity in the cortex” value is listed as “No significant treatment-effect” and the “GS activity in the hippocampus” value is given as “increased GS activity”. On GS [1] (NF 1 and 10 mg/kg i.p., twenty four hours after administration), the “GS activity in the thalamus/hypothalamus” value is “dose-dependently decreased GS activity”. Moreover, on GS [1] (rat, in vivo), the “dose of maximum effect on hippocampus GS activity” value was determined as 1 mg/kg. Besides, the “GS activity in the hippocampus” value on GS [2] is “trend to an increase of GS activity”. Moreover, the “GS activity in the thalamus/hypothalamus” value at GS [2] (GF 1 mg/kg) was “decreased”. The “interaction between NF and purified pig GS in agarose (0.1%) gel” value at purified pig brain GS (Commassie blue) was “revealed a clear precipitated protein”. On purified pig brain GS (NF 6.3e^−19 to 4.8e^−7 M, GS 3 mg/ml), the “precipitation of GS protein by different concentration of NF” value is reported as “precipitated dose dependently GS protein”. The “identity of the precipitated protein (dotblot)” value at purified pig brain GS (anti-GS antibodies) is given as “revealed specifically glutamine synthetase”. At purified pig brain GS (purified pig GS and whole rat brain homogenates), the “precipitated proteins subjected to rabbit anti-GR antibodies” value is “did not reveal any protein”. Also, in assay [3] (GF 0.001, 0.01, 0.1 mg/kg, NF 1 and 10 mg/kg, methyprednisolone 5 mg/kg i.p., 21 days, versus PCB), the adrenal weight entry was “higher”. Moreover, the “dose relation of the effect on adrenal weight” value in assay [3] (rat, in vivo) is recorded as “dose-dependent effect”. Besides, the ““high” concentration range inhibiting GS activity” value at Wistar rat brain GS was 10^−12 to 10^−14 M. On glutamine synthetase, the “presence of G-actin in the isolated band” value is recorded as 70% and the “presence of glutamine synthetase in the isolated band” value is 30%.
